Like-named read-outs stand apart in the source and are kept apart here.
Tests used:
Assay in all cases: TGFα-shedding assay-based GPCR screening with chimeric Gα subunit proteins
Format in all cases: cell-based
348 GPCRs [1] = molecular target: T1, 348 GPCRs (Homo sapiens, UniProt P34972); settings: 10µM, Favipiravir 100μM
T1 construct: expressed in transfected cells; host or cells: HEK293A

348 GPCRs [2] = molecular target: T2, 348 GPCRs (Homo sapiens, UniProt Q9NYW7); settings: 10µM, Favipiravir 100μM
T2 construct: expressed in transfected cells; host or cells: HEK293A
T2 sequence (Q9NYW7 1-299): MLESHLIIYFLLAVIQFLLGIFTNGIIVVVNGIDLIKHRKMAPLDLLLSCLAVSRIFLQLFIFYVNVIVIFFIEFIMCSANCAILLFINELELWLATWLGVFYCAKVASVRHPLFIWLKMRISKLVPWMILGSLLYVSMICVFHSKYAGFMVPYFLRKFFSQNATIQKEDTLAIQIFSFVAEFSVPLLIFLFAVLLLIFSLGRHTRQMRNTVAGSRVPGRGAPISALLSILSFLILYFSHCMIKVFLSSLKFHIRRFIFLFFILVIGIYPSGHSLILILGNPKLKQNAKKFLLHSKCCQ

348 GPCRs [3] = molecular target: T3, 348 GPCRs (Homo sapiens, UniProt P41597); settings: 10µM, Favipiravir 100μM
T3 construct: expressed in transfected cells; host or cells: HEK293A
T3 sequence (P41597 whole entry): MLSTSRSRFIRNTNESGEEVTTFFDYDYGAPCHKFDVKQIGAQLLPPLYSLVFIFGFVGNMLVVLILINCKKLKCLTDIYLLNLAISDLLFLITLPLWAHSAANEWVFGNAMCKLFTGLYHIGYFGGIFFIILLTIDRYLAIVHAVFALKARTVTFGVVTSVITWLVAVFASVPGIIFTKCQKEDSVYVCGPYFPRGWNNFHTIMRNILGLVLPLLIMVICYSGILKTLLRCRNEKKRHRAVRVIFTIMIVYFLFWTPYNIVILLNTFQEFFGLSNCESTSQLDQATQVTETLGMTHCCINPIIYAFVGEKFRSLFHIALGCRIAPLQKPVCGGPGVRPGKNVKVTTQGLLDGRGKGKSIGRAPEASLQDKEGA

348 GPCRs [4] = molecular target: T4, 348 GPCRs (Homo sapiens, UniProt P49238); settings: GPCR CX3CR1 (chemokine (C-X3-C motif) receptor 1)
T4 construct: expressed in transfected cells; host or cells: HEK293A
T4 sequence (P49238 1-355): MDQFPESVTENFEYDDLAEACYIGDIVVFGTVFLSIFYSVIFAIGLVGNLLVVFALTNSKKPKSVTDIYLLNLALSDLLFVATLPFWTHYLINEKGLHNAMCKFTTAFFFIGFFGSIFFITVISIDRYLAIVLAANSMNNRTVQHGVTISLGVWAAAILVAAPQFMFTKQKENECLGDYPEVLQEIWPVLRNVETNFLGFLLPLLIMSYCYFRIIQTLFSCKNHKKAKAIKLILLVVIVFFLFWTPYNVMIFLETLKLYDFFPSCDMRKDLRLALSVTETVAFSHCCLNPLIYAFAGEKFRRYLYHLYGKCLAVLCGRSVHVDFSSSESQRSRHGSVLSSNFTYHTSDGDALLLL

348 GPCRs [5] = molecular target: T5, 348 GPCRs (Homo sapiens, UniProt P25024)
T5 construct: expressed in transfected cells; host or cells: HEK293A
T5 sequence (P25024 1-350): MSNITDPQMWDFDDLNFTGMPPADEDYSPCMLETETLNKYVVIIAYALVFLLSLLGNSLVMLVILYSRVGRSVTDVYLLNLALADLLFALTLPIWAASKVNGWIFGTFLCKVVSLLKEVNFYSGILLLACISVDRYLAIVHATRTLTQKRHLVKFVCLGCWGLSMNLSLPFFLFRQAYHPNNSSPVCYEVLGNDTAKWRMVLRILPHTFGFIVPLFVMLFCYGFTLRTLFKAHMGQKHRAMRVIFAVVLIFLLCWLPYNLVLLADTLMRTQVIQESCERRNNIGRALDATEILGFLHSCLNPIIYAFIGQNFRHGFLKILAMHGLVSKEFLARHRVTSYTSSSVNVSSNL

348 GPCRs [6] = molecular target: T6, 348 GPCRs (Homo sapiens, UniProt Q01718)
T6 construct: expressed in transfected cells; host or cells: HEK293A
T6 sequence (Q01718 whole entry): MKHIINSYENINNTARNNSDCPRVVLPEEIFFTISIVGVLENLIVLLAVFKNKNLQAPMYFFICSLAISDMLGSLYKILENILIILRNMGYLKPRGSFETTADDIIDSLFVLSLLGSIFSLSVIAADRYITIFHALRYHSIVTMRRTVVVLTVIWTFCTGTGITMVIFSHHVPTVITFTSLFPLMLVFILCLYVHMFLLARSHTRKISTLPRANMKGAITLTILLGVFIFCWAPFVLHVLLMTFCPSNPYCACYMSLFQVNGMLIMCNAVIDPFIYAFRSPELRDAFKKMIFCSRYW

348 GPCRs [7] = molecular target: T7, 348 GPCRs (Homo sapiens, UniProt P20309)
T7 construct: expressed in transfected cells; host or cells: HEK293A
T7 sequence (P20309 whole entry): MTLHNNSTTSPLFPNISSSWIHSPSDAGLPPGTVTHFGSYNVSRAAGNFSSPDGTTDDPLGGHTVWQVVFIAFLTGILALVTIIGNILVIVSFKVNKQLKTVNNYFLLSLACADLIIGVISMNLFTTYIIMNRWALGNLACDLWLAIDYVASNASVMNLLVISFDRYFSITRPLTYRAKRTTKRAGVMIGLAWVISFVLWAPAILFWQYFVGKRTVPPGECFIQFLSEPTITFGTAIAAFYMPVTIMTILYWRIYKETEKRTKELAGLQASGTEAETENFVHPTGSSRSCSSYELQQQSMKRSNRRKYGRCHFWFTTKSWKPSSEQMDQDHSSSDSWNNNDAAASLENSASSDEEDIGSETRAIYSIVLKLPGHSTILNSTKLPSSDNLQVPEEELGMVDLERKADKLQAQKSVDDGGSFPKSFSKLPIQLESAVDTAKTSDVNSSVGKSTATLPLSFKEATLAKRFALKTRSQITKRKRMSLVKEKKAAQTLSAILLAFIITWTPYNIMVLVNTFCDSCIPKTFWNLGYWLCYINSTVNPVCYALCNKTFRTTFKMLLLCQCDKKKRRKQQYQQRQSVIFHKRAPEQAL

348 GPCRs [8] = molecular target: T8, 348 GPCRs (Homo sapiens, UniProt Q96P65); settings: 10µM, Favipiravir 100μM
T8 construct: expressed in transfected cells; host or cells: HEK293A
T8 sequence (Q96P65 1-431): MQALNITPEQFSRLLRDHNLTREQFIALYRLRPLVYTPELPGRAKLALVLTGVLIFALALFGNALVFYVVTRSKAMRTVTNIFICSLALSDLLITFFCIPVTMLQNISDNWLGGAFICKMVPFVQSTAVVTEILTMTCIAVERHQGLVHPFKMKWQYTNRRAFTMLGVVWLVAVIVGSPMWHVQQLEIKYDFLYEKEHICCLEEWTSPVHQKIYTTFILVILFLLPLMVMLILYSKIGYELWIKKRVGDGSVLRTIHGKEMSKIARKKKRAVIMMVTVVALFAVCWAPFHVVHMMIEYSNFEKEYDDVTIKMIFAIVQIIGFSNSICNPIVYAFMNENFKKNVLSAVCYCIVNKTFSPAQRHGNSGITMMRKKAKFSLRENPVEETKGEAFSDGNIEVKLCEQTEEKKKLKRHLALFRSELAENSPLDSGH

348 GPCRs [9] = molecular target: T9, 348 GPCRs (Homo sapiens, UniProt P30518)
T9 construct: expressed in transfected cells; host or cells: HEK293A
T9 sequence (P30518 whole entry): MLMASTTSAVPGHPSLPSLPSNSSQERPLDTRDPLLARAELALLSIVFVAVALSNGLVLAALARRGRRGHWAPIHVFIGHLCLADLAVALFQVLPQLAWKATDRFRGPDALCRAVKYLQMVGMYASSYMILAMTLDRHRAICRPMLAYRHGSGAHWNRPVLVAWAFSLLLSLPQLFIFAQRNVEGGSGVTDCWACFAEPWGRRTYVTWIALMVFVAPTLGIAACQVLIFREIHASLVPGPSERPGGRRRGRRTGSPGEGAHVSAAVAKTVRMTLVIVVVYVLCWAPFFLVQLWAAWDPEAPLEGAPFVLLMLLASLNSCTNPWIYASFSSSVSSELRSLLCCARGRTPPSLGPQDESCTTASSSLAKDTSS

348 GPCRs [10] = molecular target: T10, 348 GPCRs (Homo sapiens, UniProt Q86SM5); settings: 10µM, Favipiravir 100μM
T10 construct: expressed in transfected cells; host or cells: HEK293A
T10 sequence (Q86SM5 1-289): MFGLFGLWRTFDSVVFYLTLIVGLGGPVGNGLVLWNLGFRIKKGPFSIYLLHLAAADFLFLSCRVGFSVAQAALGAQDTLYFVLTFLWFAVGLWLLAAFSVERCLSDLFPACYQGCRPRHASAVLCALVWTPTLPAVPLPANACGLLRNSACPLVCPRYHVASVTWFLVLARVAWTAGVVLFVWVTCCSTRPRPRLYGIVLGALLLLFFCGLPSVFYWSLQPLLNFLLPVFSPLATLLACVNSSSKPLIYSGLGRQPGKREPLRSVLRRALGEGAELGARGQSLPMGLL

[11] = CB2 (cannabinoid receptor 2), read-out: % GPCR activation compared to TPA
[12] = TAS2R1 (taste receptor, type 2, member 1), read-out: % GPCR activation compared to TPA
[13] = CCR2 (C-C motif chemokine receptor 2), read-out: % GPCR activation compared to TPA
[14] = GPCR CXCR1 (chemokine (C-X-C motif) receptor 1), read-out: % GPCR activation compared to TPA
[15] = GPCR MC2R (melanocortin 2 receptor), read-out: % GPCR activation compared to TPA
[16] = GPCR M3 (Muscarinic acetylcholine receptor M3), read-out: % GPCR activation compared to TPA
[17] = QRFP (pyroglutamylated RFamide peptide receptor), read-out: % GPCR activation compared to TPA
[18] = GPCR V2 (arginine vasopressin receptor 2), read-out: % GPCR activation compared to TPA
[19] = MRGPRG (MAS-related GPR, member G), read-out: % GPCR activation compared to TPA
[20] = read-out: % GPCR activation compared to TPA, CB2 (cannabinoid receptor 2)
[21] = read-out: % GPCR activation compared to TPA, TAS2R1 (taste receptor, type 2, member 1)
[22] = read-out: % GPCR activation compared to TPA, CCR2 (C-C motif chemokine receptor 2)
[23] = read-out: % GPCR activation compared to TPA, GPCR CXCR1 (chemokine (C-X-C motif) receptor 1)
[24] = read-out: % GPCR activation compared to TPA, GPCR MC2R (melanocortin 2 receptor)
[25] = read-out: % GPCR activation compared to TPA, GPCR M3 (Muscarinic acetylcholine receptor M3)
[26] = read-out: % GPCR activation compared to TPA, QRFP (pyroglutamylated RFamide peptide receptor)
[27] = read-out: % GPCR activation compared to TPA, GPCR V2 (arginine vasopressin receptor 2)
[28] = read-out: % GPCR activation compared to TPA, MRGPRG (MAS-related GPR, member G)

T1 sequence (P34972 whole entry): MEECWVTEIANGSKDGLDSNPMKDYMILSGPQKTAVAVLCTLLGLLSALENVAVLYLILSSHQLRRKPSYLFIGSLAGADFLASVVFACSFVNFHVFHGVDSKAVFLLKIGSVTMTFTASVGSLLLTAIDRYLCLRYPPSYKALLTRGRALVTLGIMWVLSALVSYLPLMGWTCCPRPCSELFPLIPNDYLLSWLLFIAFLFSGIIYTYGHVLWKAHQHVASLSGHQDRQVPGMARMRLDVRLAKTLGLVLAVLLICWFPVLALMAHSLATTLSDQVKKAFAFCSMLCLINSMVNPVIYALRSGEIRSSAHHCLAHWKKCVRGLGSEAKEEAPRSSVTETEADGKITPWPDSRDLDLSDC

Row | Structure (SMILES) | activation at 100 µM (348 GPCRs [1]; [11]) | activation at 100 µM (348 GPCRs [2]; [12]) | activation at 100 µM (348 GPCRs [3]; [13]) | % GPCR activation compared to TPA (348 GPCRs [4]; 10µM) | activation at 10 µM (348 GPCRs [5]; [14]) | activation at 10 µM (348 GPCRs [6]; [15]) | activation at 10 µM (348 GPCRs [7]; [16]) | activation at 100 µM (348 GPCRs [8]; [17]) | activation at 10 µM (348 GPCRs [9]; [18]) | activation at 100 µM (348 GPCRs [10]; [19]) | activation at 100 µM (348 GPCRs [1]; [20]) | activation at 100 µM (348 GPCRs [2]; [21]) | activation at 100 µM (348 GPCRs [3]; [22]) | activation at 10 µM (348 GPCRs [5]; [23]) | activation at 10 µM (348 GPCRs [6]; [24]) | activation at 10 µM (348 GPCRs [7]; [25]) | activation at 100 µM (348 GPCRs [8]; [26]) | activation at 10 µM (348 GPCRs [9]; [27]) | activation at 100 µM (348 GPCRs [10]; [28]) | also measured
1 | N#C[C@@]1(c2ccc3c(N)ncnn23)O[C@H](CO)[C@@H](O)[C@H]1O [GS441524] | -0.772% | -0.408% | 2.78% | -0.5209% | -1.09% | -0.688% | 3.5% | -0.975% | -0.765% | -1.34% | – | – | – | – | – | – | – | – | – | –
2 | CCC(CC)COC(=O)[C@H](C)N[P@](=O)(OC[C@H]1O[C@@](C#N)(c2ccc3c(N)ncnn23)[C@H](O)[C@@H]1O)Oc1ccccc1 [remdesivir] | – | – | – | 2.076% | – | – | – | – | – | – | -0.086% | 0.931% | 5.23% | -0.838% | -1.06% | 2.85% | -1.33% | 1.36% | -0.00101% | –
3 | CC(C)OC(=O)[C@H](C)N[P@](=O)(OC[C@H]1O[C@@H](n2ccc(=O)[nH]c2=O)[C@](C)(F)[C@@H]1O)Oc1ccccc1 [sofosbuvir] | – | – | – | 0.2471% | – | – | – | – | – | – | -2.78% | -0.974% | -0.876% | -0.0928% | -3.14% | -1.32% | -1.05% | -0.417% | -0.28% | –
4 | NC(=O)c1nc(F)cnc1O [favipiravir, 6-fluoro-3-hydroxy-2-pyrazinecarboxamide] | 1.24% | -0.27% | 5.66% | – | – | – | – | -2.34% | – | -0.36% | – | – | – | – | – | – | – | – | – | % GPCR activation compared to TPA (348 GPCRs [4]; 100μM): 0.06344%; activation at 100 µM (348 GPCRs [5]; GPCR CXCR1 (chemokine (C-X-C motif) receptor 1), 100μM, read-out: % GPCR activation compared to TPA): -1.26%; activation at 100 µM (348 GPCRs [6]; GPCR MC2R (melanocortin 2 receptor), 100μM, read-out: % GPCR activation compared to TPA): -0.849%; activation at 100 µM (348 GPCRs [7]; GPCR M3 (Muscarinic acetylcholine receptor M3), 100μM, read-out: % GPCR activation compared to TPA): 0.164%; activation at 100 µM (348 GPCRs [9]; GPCR V2 (arginine vasopressin receptor 2), 100μM, read-out: % GPCR activation compared to TPA): 1.41%
5 | CC(C)C(=O)OC[C@H]1O[C@@H](n2ccc(NO)nc2=O)[C@H](O)[C@@H]1O [molnupiravir] | -1.91% | -0.93% | 0.105% | -0.5795% | -2.06% | -0.524% | -0.147% | -2.8% | -0.988% | -1.58% | – | – | – | – | – | – | – | – | – | –

Source: article PMC10175918 (Communications Biology, 2023)
